How the values were obtained:
Assay type in all cases: in vivo
[1] = test system: Maize (Dekalb RX940); assay: Maize field trial, Dinuba 2008 (Example 5)
Experimental: Maize was grown in 2008 in a field trial at the BASF experimental station in Dinuba, 10181 Avenue 416, Calif., U.S.A. The variety Dekalb RX940 was planted at a seeding rate of 10 plants/m^2. Four rows per plot were planted with a row spacing of 0.75 m. The trial was setup as a randomized bloc design with 5 replications, each. Plot size was 43 m^2. Compound Ia was used as an EC formulation (62.5 g a.i./L) with a dose rate of 0.8 L per hectar (50 g a.i./ha). The formulation was applied in a total spray volume of 400 L/ha. Compound Ia was sprayed at a growth stage 51/55 (BBCH) with a tractor mounted spray boom with VS11003 spray nozzles at 3 bar spray pressure.
(§1) No disease symptoms were visible at the application time and no symptoms were detected at later stages.
Green leaf area, as an indicator of plant vigor, was assessed beginning of ripening by estimating the green leaf area in 10 randomly chosen plants per plot.
At maturity the grain was harvested and the grain yield per plot, as an indicator of plant yield, was determined (kg/plot). Finally, the grain yield per hectare, as an aditional indicator of plant yield, was calculated (dt/ha). Furthermore, the Thousand Grain Weight (TGW) was determined in the second trial (Crow C300 42).

[2] = test system: Soybeans (Pioneer 93-M-11, Crow C300 42); assay: Soybean field trials, Dinuba 2008 (Example 4)
Experimental: Soybeans were grown in 2008 in two field trials at the BASF experimental station in Dinuba, 10181 Avenue 416, Calif., U.S.A. In one trial, the variety Pioneer 93-M-11 was planted at a seeding rate of 88 kg/ha. In a second trial, the variety Crow C300 42 was planted at the same seeding rate. Both trials were setup as randomized complete block design with 5 replications, each. Plot size was 42 m^2. Compound la was used as an EC formulation (62.5 g a.i./L) with a dose rate of 0.64 L per hectar (40 g a.i./ha). The formulation was applied in a total spray volume of 300 L/ha. Compound Ia was sprayed at growth stage 34/37 (BBCH) with a tractor mounted spray boom with VS11003 spray nozzles at 3 bar spray pressure.
as §1
Green leaf area, as an indicator of plant vigor, was assessed in the second trial (variety Crow C300 42) when all pods had reached their final size by estimating the green leaf area in 10 randomly chosen plants per plot. At maturity the grain was harvested and the grain yield per plot, as an indicator of plant yield, was determined (kg/plot). Finally, the grain yield per hectare was calculated (dt/ha). Thousand Grain Weight (TGW) was determined in the second trial (Crow C300 42).

[3] = test system: Maize (Pioneer 34-N-45); assay: Maize field trial, mixture with epoxiconazol, Colby synergism (Example 6); conditions: 50 g a.i./ha of each compound
Experimental: Maize was grown in 2008 in a field trial at the BASF experimental station in Dinuba, 10181 Avenue 416, Calif., U.S.A. The variety Pioneer 34-N-45 was planted at a seeding rate of 35.000 plants/ha. The trial was setup as a randomized bloc design with 5 replications, each. Plot size was 43 m^2.
The maize plants were either untreted, treated with epoxiconazol (A3), with compound Ia, and with a mixture comprising compound Ia and epoxiconazol. Epoxiconazol was applied as the commercial formulation OPUS™ (125 g a.i./L, SC formulation) at a dose rate of 0.4 L/ha (50 g a.i./ha). Compound Ia was used as an EC formulation (62.5 g a.i./L) with a dose rate of 0.8 L per hectar (50 g a.i./ha). Epoxiconazol was applied together with compound Ia (as a mixture) using a co-formulation of both compounds (EC formulation, 62.5 g a.i./L each) with a product rate of 0.8 L/ha. The formulation was applied in a total spray volume of 300 L/ha. Compound Ia was sprayed at growth stage 51/55 (BBCH) with a tractor mounted spray boom with VS11003 spray nozzles at 3 bar spray pressure.
as §1
At maturity the grain was harvested and the grain yield per plot, as an indicator of plant yield, was determined (kg/plot). Finally, the grain yield per hectare was calculated (dt/ha).
The efficacy was calculated as % increase of the grain yield (dt/ha) by each treatment compared to the untreated control.
The expected efficacies of the combinations of the active compounds were estimated using Colby's formula (Colby, S. R., Calculating synergistic and antagonistic responses of herbicide combinations, Weeds, 15, pp. 20-22, 1967) and compared with the observed efficacies.
E=x+y−x·y/100 Colby's formula: • E expected efficacy, expressed in % of the untreated control, when using the mixture of the active compounds A and B at the concentrations a and b • x efficacy, expressed in % of the untreated control, when using the active ingredient A at the concentration a • y efficacy, expressed in % of the untreated control, when using the active ingredient B at the concentration b

[4] = test system: spring wheat (cv. Passat); assay: Spring wheat pot trial, severe drought stress (Example 2)
Experimental: Spring wheat (cv. Passat) was cultivated in Mitcherlich pots as described above in example 1. The experiment was conducted with 6 replications in a vegetation hall. Experiments were carried out under semi controlled conditions at very low disease-pressure with insignificant infection rates, protected from any undesired rain or water impact. The water consumption of each pot was calculated on the basis of the recorded measurements of the weight of the pots prior to each irrigation event up to the defined set point.
Nitrogen fertilizer (totally 1.75 g N/pot) was added in equal amounts at 3 stages to allow optimal growth conditions throughout the life cycle. All plants/pots were grown at optimal water supply by watering 2-3 times a day to 60% of the water holding capacity of the soil until growth stage 55 (BBCH). Then, pots were only watered to 60% of the maximum water holding capacity of the soil after clear water stress symptoms on the plants were visible to apply severe drought stress.
Compound Ia (62.5 g/l, 2 L in 400 L water/ha) was applied at growth stage 39/49 (BBCH scale), which is an EC formulation of compound Ia. Control plants were not treated.
After ripening of the plants, the grain was harvested and uniformly dried to 5% moisture content. Grain yield per pot, grain yield per ear, number of grains per ear and number of grains per pot were determined as indicators of plant vigor and plant yield. The relation of grain yield to straw added to the grain yield was used to calculate the harvest index.

[5] = 40 g a.i./ha, listed as compound Ia
[6] = severe drought stress from BBCH 55, 2 L/ha EC at BBCH 39/49

For `Cn1cc(C(=O)Nc2ccccc2-c2cc(F)c(F)c(F)c2)c(C(F)F)n1` [Compound Ia, N-(3′,4′,5′-trifluorobiphenyl-2-yl)-3-difluoromethyl-1-methyl-1H-pyrazole-4-carboxamide], the “Grain yield, increase as % of untreated” value ([1]; 50 g a.i./ha) was “(+4.5%)”, the “TGW, increase as % of untreated” value ([1]; 50 g a.i./ha) was “(+3.3%)” and the Grain yield ([1]; 50 g a.i./ha at BBCH 51/55) was 154.7 dt/ha. For the same molecule, the TGW ([1]; 50 g a.i./ha at BBCH 51/55) was 317.0 g, the “% Green leaf area” value ([1]; 50 g a.i./ha at BBCH 51/55, beginning of ripening) was 49.0% and the “Grain yield, increase as % of untreated” value ([1]; 50 g a.i./ha, listed as compound Ia) was 4.5%. For the same molecule, the “Soybean grain yield (Trial 1) Pioneer 93M11, increase as % of untreated” value ([2]; 40 g a.i./ha) was “(+11.6%)”, the “Soybean grain yield (Trial 2) Crow C300 42, increase as % of untreated” value ([2]; 40 g a.i./ha) was “(+6.5%)” and the “Soybean grain yield, Mean of two trials, increase as % of untreated” value ([2]; 40 g a.i./ha) was “(+8.5%)”. For the same molecule, the “Soybean grain yield (Trial 1) Pioneer 93M11” value ([2]; 40 g a.i./ha at BBCH 34/37) was 45.5 dt/ha, the “Soybean grain yield (Trial 2) Crow C300 42” value ([2]; 40 g a.i./ha at BBCH 34/37) was 67.1 dt/ha and the “Soybean grain yield, Mean of two trials” value ([2]; 40 g a.i./ha at BBCH 34/37) was 56.3 dt/ha. The “Soybean grain yield (Trial 1) Pioneer 93M11, increase as % of untreated” value [2, 5] was ~12%, the “Soybean grain yield, Mean of two trials, increase as % of untreated” value [2, 5] was 8.5% and the TGW ([2]; soybean Crow C300 42 (second trial), 40 g a.i./ha at BBCH 34/37) was 177.0 g. For the same molecule, the “% Green leaf area” value ([2]; soybean Crow C300 42 (second trial), 40 g a.i./ha at BBCH 34/37, pods at final size) was 88.4%, the “TGW, increase as % of untreated” value ([2]; soybean Crow C300 42, 40 g a.i./ha) was “(+5.7%)” and the “Observed efficacy (% increase of grain yield vs untreated control)” value [3] was 0.4%. For the same molecule, the Grain yield ([3]; BBCH 51/55) was 154.9 dt/ha, the “Harvest index, change vs untreated control” value ([4]; severe drought stress) was “(+3%)” and the “Number of grains per ear, change vs untreated control” value ([4]; severe drought stress) was “(+3%)”. For the same molecule, the “Single ear grain yield, change vs untreated control” value ([4]; severe drought stress) was “(+3%)”, the “Harvest index (grain yield g/grain + straw yield g)” value [4, 6] was 0.42 and the “Number of grains per ear” value [4, 6] was 49.9. For the same molecule, the “Single ear grain yield” value [4, 6] was 1.31 g/ear.
